Source: PubChem BioAssay AID1963977 (Molecular Pharmacology Branch, DTP, NCI, 2024)
pIC50: −log10 of the molar value.

Test system: 624824-186-R-J3-PDC multicell spheroids, viability
Assay: Anticancer human tumor 624824-186-R-J3-PDC patient-derived colon adenocarcinoma cell line growth inhibition [PI3K]
Settings: for pIC50: curve of first compound; for viability, T/C: stronger effect = lower value
Summary of the method: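 Stroma-containing spheroids: tumor line, pooled-donor HUVEC, hMSC. Treatments: targeted agents with PI3K inhibitors. Dosing: clinically relevant, half-log spacing, 10 microM ceiling without known Cmax. Read-out: cell viability.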
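Further: spheroids exposed to agents for seven days before luminescence read.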
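Wherever viability, T/C is given: luminescent signal used as a stand-in for spheroid viability; percent viability relative to DMSO vehicle control wells taken as 100%.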

## C[C@@H](NC(=O)c1ncnc(N)c1Cl)c1ncc(C(=O)Nc2cc(C(F)(F)F)c(Cl)cn2)s1 + CC(Nc1ncnc2nc[nH]c12)c1cc2cccc(Cl)c2c(=O)n1-c1ccccc1
Second compound 0.0316 µM
  pIC50: < 5.00
Second compound 0.1 µM
  pIC50: < 5.00
Second compound 0.316 µM
  pIC50: < 5.00
Second compound 1 µM
  pIC50: < 5.00
Second compound 3.16 µM
  pIC50: < 5.00
Second compound 10 µM
  pIC50: < 5.00
Second compound 0.0316 µM, first compound 0.0316 µM
  viability, T/C: 115%
Second compound 0.0316 µM, first compound 0.1 µM
  viability, T/C: 100%
Second compound 0.0316 µM, first compound 0.316 µM
  viability, T/C: 107%
Second compound 0.0316 µM, first compound 1 µM
  viability, T/C: 100%
Second compound 0.0316 µM, first compound 3.16 µM
  viability, T/C: 99.8%
Second compound 0.0316 µM, first compound 10 µM
  viability, T/C: 94.4%
Second compound 0.1 µM, first compound 0.0316 µM
  viability, T/C: 100%
Second compound 0.1 µM, first compound 0.1 µM
  viability, T/C: 101%
Second compound 0.1 µM, first compound 0.316 µM
  viability, T/C: 104%
Second compound 0.1 µM, first compound 1 µM
  viability, T/C: 107%
Second compound 0.1 µM, first compound 3.16 µM
  viability, T/C: 101%
Second compound 0.1 µM, first compound 10 µM
  viability, T/C: 107%
Second compound 0.316 µM, first compound 0.0316 µM
  viability, T/C: 96.8%
Second compound 0.316 µM, first compound 0.1 µM
  viability, T/C: 105%
Second compound 0.316 µM, first compound 0.316 µM
  viability, T/C: 92.5%
Second compound 0.316 µM, first compound 1 µM
  viability, T/C: 96.1%
Second compound 0.316 µM, first compound 3.16 µM
  viability, T/C: 98.8%
Second compound 0.316 µM, first compound 10 µM
  viability, T/C: 97.6%
Second compound 1 µM, first compound 0.0316 µM
  viability, T/C: 99.2%
Second compound 1 µM, first compound 0.1 µM
  viability, T/C: 94.4%
Second compound 1 µM, first compound 0.316 µM
  viability, T/C: 110%
Second compound 1 µM, first compound 1 µM
  viability, T/C: 92.8%
Second compound 1 µM, first compound 3.16 µM
  viability, T/C: 94.8%
Second compound 1 µM, first compound 10 µM
  viability, T/C: 83%
Second compound 3.16 µM, first compound 0.0316 µM
  viability, T/C: 97.1%
Second compound 3.16 µM, first compound 0.1 µM
  viability, T/C: 102%
Second compound 3.16 µM, first compound 0.316 µM
  viability, T/C: 104%
Second compound 3.16 µM, first compound 1 µM
  viability, T/C: 94.3%
Second compound 3.16 µM, first compound 3.16 µM
  viability, T/C: 93.8%
Second compound 3.16 µM, first compound 10 µM
  viability, T/C: 73.3%
Second compound 10 µM, first compound 0.0316 µM
  viability, T/C: 100%
Second compound 10 µM, first compound 0.1 µM
  viability, T/C: 94.7%
Second compound 10 µM, first compound 0.316 µM
  viability, T/C: 96.3%
Second compound 10 µM, first compound 1 µM
  viability, T/C: 83%
Second compound 10 µM, first compound 3.16 µM
  viability, T/C: 82.2%
Second compound 10 µM, first compound 10 µM
  viability, T/C: 61%

## Cn1cnc2c(F)c(Nc3ccc(Br)cc3Cl)c(C(=O)NOCCO)cc21 + COc1c(OCCCN2CCOCC2)ccc2c3n(c(=NC(=O)c4cnc(N)nc4)nc12)CCN3
Second compound 0.00316 µM
  pIC50: 6.07
Second compound 0.01 µM
  pIC50: 6.24
Second compound 0.0316 µM
  pIC50: 6.72
Second compound 0.1 µM
  pIC50: 7.32
Second compound 0.316 µM
  pIC50: > 8.02
Second compound 1 µM
  pIC50: > 8.02
Second compound 0.00316 µM, first compound 0.00949 µM
  viability, T/C: 102%
Second compound 0.00316 µM, first compound 0.03 µM
  viability, T/C: 95.9%
Second compound 0.00316 µM, first compound 0.0949 µM
  viability, T/C: 102%
Second compound 0.00316 µM, first compound 0.3 µM
  viability, T/C: 87.8%
Second compound 0.00316 µM, first compound 0.949 µM
  viability, T/C: 46.3%
Second compound 0.00316 µM, first compound 3 µM
  viability, T/C: 31.4%
Second compound 0.01 µM, first compound 0.00949 µM
  viability, T/C: 108%
Second compound 0.01 µM, first compound 0.03 µM
  viability, T/C: 88.4%
Second compound 0.01 µM, first compound 0.0949 µM
  viability, T/C: 86.4%
Second compound 0.01 µM, first compound 0.3 µM
  viability, T/C: 65.5%
Second compound 0.01 µM, first compound 0.949 µM
  viability, T/C: 37.1%
Second compound 0.01 µM, first compound 3 µM
  viability, T/C: 18.4%
Second compound 0.0316 µM, first compound 0.00949 µM
  viability, T/C: 88.9%
Second compound 0.0316 µM, first compound 0.03 µM
  viability, T/C: 89.6%
Second compound 0.0316 µM, first compound 0.0949 µM
  viability, T/C: 67.4%
Second compound 0.0316 µM, first compound 0.3 µM
  viability, T/C: 37.7%
Second compound 0.0316 µM, first compound 0.949 µM
  viability, T/C: 18.2%
Second compound 0.0316 µM, first compound 3 µM
  viability, T/C: 11.2%
Second compound 0.1 µM, first compound 0.00949 µM
  viability, T/C: 75.2%
Second compound 0.1 µM, first compound 0.03 µM
  viability, T/C: 57.9%
Second compound 0.1 µM, first compound 0.0949 µM
  viability, T/C: 38.5%
Second compound 0.1 µM, first compound 0.3 µM
  viability, T/C: 21%
Second compound 0.1 µM, first compound 0.949 µM
  viability, T/C: 13.5%
Second compound 0.1 µM, first compound 3 µM
  viability, T/C: 5.3%
Second compound 0.316 µM, first compound 0.00949 µM
  viability, T/C: 43.3%
Second compound 0.316 µM, first compound 0.03 µM
  viability, T/C: 28.9%
Second compound 0.316 µM, first compound 0.0949 µM
  viability, T/C: 17.9%
Second compound 0.316 µM, first compound 0.3 µM
  viability, T/C: 9.77%
Second compound 0.316 µM, first compound 0.949 µM
  viability, T/C: 4.7%
Second compound 0.316 µM, first compound 3 µM
  viability, T/C: 1.14%
Second compound 1 µM, first compound 0.00949 µM
  viability, T/C: 22.7%
Second compound 1 µM, first compound 0.03 µM
  viability, T/C: 16%
Second compound 1 µM, first compound 0.0949 µM
  viability, T/C: 10.1%
Second compound 1 µM, first compound 0.3 µM
  viability, T/C: 8.08%
Second compound 1 µM, first compound 0.949 µM
  viability, T/C: 3.21%
Second compound 1 µM, first compound 3 µM
  viability, T/C: 1.3%
